Laboratory results from patent US20090270386A1, “THERAPEUTIC COMPOUNDS” (ALLERGAN, INC., priority 2008, published 2009).

What was measured:
normotensive dogs = assay: Intraocular pressure reduction in normotensive dogs; format: in vivo
Protocol: U.S. Pat. No. 7,091,231 describes the methods used for these in vivo tests.
Compounds such as those described in the above are tested in vivo to measure its ability to reduce intraocular pressure. Compound 14a is tested in normotensive dogs.

[1] = tested on: laser-induced hypertensive monkeys; assay: Intraocular pressure reduction in laser-induced hypertensive monkeys; format: in vivo
[2] = tested on: lashes and adjacent hairs of glaucoma patients; assay: Observation of eyelash/hair growth in glaucoma patients treated in one eye; format: in vivo, humans; conditions: glaucoma patients treated unilaterally
From the text: In the course of treating patients having glaucoma, treatment may only be appropriate in one eye. […] The lash appearance on the lids of the treated eyes would have appeared quite attractive if it represented a bilateral phenomenon. As a result of its asymmetric nature, the long lashes on one side could be construed as disturbing from a cosmetic standpoint. A systemic examination was preformed as a result of the asymmetric phenomenon. It soon became apparent that this altered appearance was not an isolated finding. […] Definite differences could be identified to varying degrees in the lashes and adjacent hairs of all patients who were taking the drug on a unilateral basis for longer than 6 months.
The changes in the lashes were apparent on gross inspection in several patients once attention was focused on the issue. In those with light colored hair and lashes, the differences were only seen easily with the aid of the high magnification and lighting capabilities of the slit lamp biomicroscope. In the course of glaucoma follow-up examination, attention is generally immediately focused on the eye itself. As a result of the high power magnification needed only one eye is seen at a time and the eye is seen at a high enough power that the lashes are not in focus. […]

| SMILES | intraocular pressure (IOP) change from baseline (normotensive dogs) | IOP change from baseline [1] | lash appearance in treated eye versus non-treated eye [2] |
| --- | --- | --- | --- |
| Cc1cc(C)cc(OCC2C(O)CC(Cl)C2CCCc2ccc(C(=O)OCCN3CCOCC3)s2)c1 (centres unmarked) [Compound 35b] | decreases from baseline | decreases from baseline | – |
| O=C(OCCN1CCOCC1)c1ccc(CCCC2C(F)CC(O)C2COc2cc(Cl)cc(Cl)c2)s1 (centres unmarked) [Compound 70b] | decreases from baseline | decreases from baseline | – |
| O=C(OCCN1CCOCC1)c1ccc(CCCC2C(Cl)CCC2COc2cc(Cl)cc(CO)c2)s1 (centres unmarked) [Compound 51b] | decreases from baseline | decreases from baseline | – |
| COCc1cc(Cl)cc(OCC2C(O)CC(Cl)C2CC=CCCCC(=O)OCCO)c1 (centres unmarked) [Compound 22a] | decreases from baseline | decreases from baseline | – |
| O=C(OCCN1CCOCC1)c1ccc(CCCC2C(Cl)CC(O)C2COc2cc(Cl)cc(Cl)c2)s1 (centres unmarked) [Compound 33b] | decreases from baseline | decreases from baseline | – |
| N#CC1CC(O)C(COc2cc(Cl)cc(Cl)c2)C1CCCc1ccc(C(=O)OCCN2CCOCC2)s1 (centres unmarked) [Compound 58b] | decreases from baseline | decreases from baseline | – |
| O=C(OCCO)c1ccc(CCCC2C(F)CC(O)C2COc2cc(Cl)cc(Cl)c2)s1 (centres unmarked) [Compound 70a] | decreases from baseline | decreases from baseline | – |
| O=C(OCCO)c1ccc(CCCC2C(Cl)CCC2COc2cc(Cl)cc(CO)c2)s1 (centres unmarked) [Compound 51a] | decreases from baseline | decreases from baseline | – |
| COCc1cc(Cl)cc(OCC2C(O)CC(Cl)C2CC=CCCCC(=O)OCCN2CCOCC2)c1 (centres unmarked) [Compound 22b] | decreases from baseline | decreases from baseline | – |
| O=C(OCCO)c1ccc(CCCC2C(Cl)CC(O)C2COc2cc(Cl)cc(Cl)c2)s1 (centres unmarked) [Compound 33a] | decreases from baseline | decreases from baseline | – |
| CC(=O)OCCc1cc(Cl)cc(OCC2C(O)CC(Cl)C2CC=CCCCC(=O)OCCN2CCOCC2)c1 (centres unmarked) [Compound 16b] | decreases from baseline | decreases from baseline | – |
| O=C(OCCO)c1ccc(CCCC2=CCC(O)C2COc2cc(Cl)cc(Cl)c2)s1 (centres unmarked) [Compound 68a] | decreases from baseline | decreases from baseline | – |
| CC(=O)OCCc1cc(Cl)cc(OCC2C(O)CC(Cl)C2CC=CCCCC(=O)OCCO)c1 (centres unmarked) [Compound 16a] | decreases from baseline | decreases from baseline | – |
| O=C(OCCO)c1ccc(CCCC2C(Cl)CC(O)C2COc2cc(Cl)cc(CO)c2)s1 (centres unmarked) [Compound 34a] | decreases from baseline | decreases from baseline | – |
| N#CC1CC(O)C(COc2cc(Cl)cc(Cl)c2)C1CCCc1ccc(C(=O)OCCO)s1 (centres unmarked) [Compound 58a] | decreases from baseline | decreases from baseline | – |
| O=C(OCCN1CCOCC1)c1ccc(CCCC2C(Cl)CC(O)C2COc2cc(Cl)cc(CO)c2)s1 (centres unmarked) [Compound 34b] | decreases from baseline | decreases from baseline | – |
| O=C(OCCN1CCOCC1)c1ccc(CCCC2=CCC(O)C2COc2cc(Cl)cc(Cl)c2)s1 (centres unmarked) [Compound 68b] | decreases from baseline | decreases from baseline | – |
| O=C(OCCN1CCOCC1)c1ccc(CCCC2C(=O)CCC2COc2cc(Cl)cc(CO)c2)s1 (centres unmarked) [Compound 46b] | decreases from baseline | decreases from baseline | – |
| O=C(OCCO)c1ccc(CCCC2C(=O)CCC2COc2cc(Cl)cc(CO)c2)s1 (centres unmarked) [Compound 46a] | decreases from baseline | decreases from baseline | – |
| Cc1cc(C)cc(OCC2C(O)CC(Cl)C2CCCc2ccc(C(=O)OCCO)s2)c1 (centres unmarked) [Compound 35a] | decreases from baseline | decreases from baseline | – |
| CCNC(=O)CCC/C=C\C[C@@H]1[C@@H](/C=C/[C@@H](O)CCc2ccccc2)[C@H](O)C[C@@H]1O [bimatoprost] | – | – | longer, thicker, and fuller in the treated eye |
